Reference: patent US12661404B2, “Methods and materials for tissue ablation” (Mayo Foundation for Medical Education and Research, priority 2020, dated 2026)
Like-named read-outs stand apart in the source and are kept apart here.

Assays:
[1] = system: human hepatocellular carcinoma (Hep-G2) cells; conditions: Hep-G2, 24 hours incubation, WST-1
Description: HepG2 human liver cancer cell line (ATCC CRL10741; American Type Culture Collection, Manassas, VA, USA) were cultured in 75 cm^2 flasks using growth medium consisting of low glucose Dulbecco's Modified Eagle Medium (DMEM, ThermoFisher) and 10% heat-inactivated bovine serum that was supplemented with 100 IU penicillin and 10 μg/mL streptomycin (Thermo Fisher Scientific). […] The anticancer activity of LATTE on HepG2 was determined using WST-1 reagent (2-(4-Iodophenyl)-3-(4-nitrophenyl)-5-(2,4-disulfophenyl)-2H-tetrazolium sodium) assay as an indication of viability/cytotoxicity treatment. WST-1 viability assay is based on the reduction of tetrazolium salt, WST-1 to an insoluble formazan dye by electron transport across the plasma membrane in viable cells that alter the optical density of the media. […] Cell viability was calculated relative to control wells that received the growth medium alone.
All reported values are the means of three replicate experiments with each study having 8 wells per dose level. Plots of the log concentration versus fractional viability for each drug were generated for each study.

[2] = system: N1S1 liver tumors; experiment: Intratumoral injection of LATTE in N1S1 rat model of liver cancer; type: in vivo
Description: (§1) All procedures were approved by the institutional animal care and use committee and performed according to institutional guidelines. […] N1S1 cells were maintained in suspension in a 75 cm^2 culture flasks at 37° C. in a 5% CO2 humidified chamber. […] To prepare the cells for inoculation, N1S1 cell aliquots were rinsed and suspended in plain IMDM (without antibiotics or serum) to yield 2×10^6 cells in 100 μL of fresh aliquots for each inoculation. The rat liver was surgically exposed through upper midline laparotomy under isoflurane anesthesia followed by subcapsular inoculation of N1S1 cells into the left liver lobe. Gentle compression with gauze for hemostasis was used to prevent cell reflux. The abdominal incision was closed using interrupted Vicryl sutures for abdominal muscle and subcuticular suture for the skin, followed by the application of Vetbond tissue adhesive (3M, St. Paul, MN) followed by recovery from anesthesia. Intratumoral injection of the ionic liquid mixture was performed in three groups of rats bearing 0.5 cm^3 N1S1 tumor lesions measured with ultrasound. […] All solutions contained 0.25 mg/mL indocyanine green (ICG, Sigma-Aldrich, St. Louis, MO) solubilized in normal saline. Following intratumoral injections, treated rats were allowed to survive for 2 weeks after treatment, and tumor volume was documented using ultrasound. N1S1 tumor progression and treatment response was assessed using percutaneous ultrasonography. Selected focal zone depth, gain, and tissue harmonic settings were optimized during the acquisition of the initial imaging at baseline, and the same parameters were applied during acquisition after intratumoral injection of LATTE mixture. Serial ultrasound examinations were performed on rat livers following N1S1 inoculation to confirm tumor formation and assess tumor volume. Rats were anesthetized using a gas mixture of 2-3% isoflurane in 100% oxygen via a nose cone. Rats were secured in a supine position on an electronically controlled warming platform to maintain the temperature at 37° C. during the imaging procedure. The abdominal area was shaved and prepped with depilatory cream (Nair, Church& Dwight Co. INC). Initially, abdominal sonography was performed to delineate tumor mass boundaries in grayscale (B-mode) using ACUSON 52000 system (Siemens Inc., Germany) and a multi-frequency linear transducer (9L4, 9.0 MHz). The transducer was positioned to obtain 2D scans via the subcostal window to document liver tumors and measure lesion diameter. […] Tumor volumes were calculated as following: V=(4/3)×π×(1/2) SI×(1/2)LM×1/2 AP. Color Doppler images were also acquired to detect the distribution of the tumor blood flow weekly.
(§2) To visualize normal liver parenchyma on CT imaging, rats received a bolus injection of 400 μL of the alkaline earth metal-based nanoparticle suspension, Exitron nano 12000 (Miltenyi Biotec, Auburn, CA) two hours prior to micro-CT scanning. Rats were anesthetized using inhalation of 2-3% isoflurane in 100% 02 at a constant flow rate of 2 L/minute and placed on a cassette equipped with a warming system and continuous gas exchange and integrated real-time motion detection camera. Fixed rat tissues were placed and immobilized using styrofoam beads inside a humidified plastic chamber. […] The 3D image stacks were reconstructed using NRecon software and InstaRecon CBR Server (version: 1.7.4.6, Bruker, Kontich, Belgium) following adjustment of random movements, beam-hardening correction, and ring artifact reduction and smoothing. 3D volume rendering was visualized using CTVox software (version: 3.3. 0 r1383, Bruker, Kontich, Belgium). The stacks were virtually rotated and axially oriented to yield transverse projections of select volume of interest (VOI) using Data Viewer software (Bruker, Kontich, Belgium).

[3] = system: VX2 liver tumor
Description: as §2

[4] = system: human blood clot
Description: In a separate experiment blood coagulation was induced in uncougulated human. A blood volume of 4 mL citrated blood loaded into a polypropylene tube and mixed with 400 μL of 0.2 M calcium chloride (CaCl2) for 10 seconds. Aliquouts of 100 μL were deposited into multiple wells on a 96 well plate and the remaining blood volume was kept in the tube. Coagulation was initiated by incubating the samples at 37° C. for 10 minutes.

[5] = system: pig blood
Description: (§3) The effect of IL on coagulation and cell death in blood was evaluated in vitro. To evaluate the effect of cell death along the margins of the ablation zone, specifically on the effect of IL on inflammatory cells, blood treated with low concentrations of IL was used to simulate concentrations along the ablation margins. To analyze the effect of the ionic liquid on blood coagulation, RBC hemolysis, and immune cells, analyses including rheometry, hemolyses assay, complete blood counts were performed on blood smears following incubation of pig blood aliquots with various concentrations of IL.

[6] = system: pig blood cells
Description: as §3

[7] = system: fat cells (adipocytes); experiment: Explanted pig fat tissue incubated with LATTE; conditions: after 1 hour in LATTE solution
[8] = rat, in vivo
Description: Next, in vivo experiments in immunocompetent rats bearing the highly malignant orthotropic N1S1 liver tumors were ablated using LATTE. Percutaneous injection of LATTE was performed and assessment also included CT imaging to mimic the clinical scenario. […] These tumors also received high-resolution in vivo micro-CT imaging following intravenous injection of Exitron contrast agent to allow accurate segmentation of the liver tumors (FIG. 1p-q). […] These tumors at two-weeks were also harvested and evaluated by histology.
as §1

[9] = system: freshly resected human tumors; conditions: 25%-LATTE mixed with ICG, 24 hours at 37° C., 12 tumors
Description: The fluorescent intensity and diffusion area were calculated using similar parameters for all tissues. […] LATTE was able to ablate a variety of highly malignant human tumors.
Explanted human cancer tissues were collected following surgical resection and placed in RPMI medium for preservation. […] Near-infrared fluorescent imaging (NIRF) was performed at 5 minutes after injection. […] Tissues were transected to reveal the ablated zone were fixed in 10% buffered formalin, embedded in paraffin, then sectioned and subsequently stained with hematoxylin and eosin for microscopic evaluation.

choline-geranate [LATTE]
effective dose (EC50), fractional cell viability [1]: 0.19%
tumor volume by micro-CT vs saline ([2]; 2 weeks post-treatment): substantially smaller tumor volumes
tumor size on gray-scale US, smaller than saline injected group ([2]; 25%-LATTE intratumoral, two weeks): 5 fold
CD68-expressing macrophages, increase ([2]; tumor sections, two weeks): 16 fold
number of apoptotic (cleaved Caspase-3) cells, higher than saline group ([2]; tumor sections, two weeks): 24 fold
treatment response on micro-CT review by radiologist, size criteria ([2]; two weeks): complete treatment response
tumor histology (H&E) ([2]; two weeks): complete tumor necrosis
morphometric analysis of tumor size and cell count ([2]; two weeks, vs saline): significant reduction in tumor size and cell count
proliferating (PCNA) cells ([2]; two weeks, vs saline): markedly reduced number of proliferating cells
CD3+ T-lymphocyte infiltration ([2]; within treated tumor margin, two weeks): enhanced CD3+T-lymphocyte infiltration
tumor histology ([3]; compared to saline injected tumors): extensive necrosis
tumor perfusion (Doppler, laser speckle) ([3]; following injection): markedly diminished perfusion
clot dissolution, coagulated blood in multi-wells ([4]; overlayed with LATTE): clot was dissolved
lysis of blood clot formed in the tube ([4]; petri dish, incubation with LATTE): complete lysis
blood coagulation initiation lag time (tlag) ([5]; 0.78% IL): slight increase in lag time
decrease in storage modulus (G′) at 30 minutes ([5]; 0.78% IL): ~20%
blood coagulation initiation lag time (tlag) ([5]; 1.56 wt % IL): significantly extended lag time
drop in storage modulus (G′) at 30 minutes ([5]; 1.56 wt % IL): 95%
coagulation during 30 minutes testing period ([5]; 3.12 wt % IL): failed to coagulate
decrease in storage modulus (G′) at 30 minutes ([5]; 3.12 wt % IL): 100 wt %
red blood cells (RBC) total count ([6]; 0.78, 1.56, 3.12 wt % IL): concentration dependent decrease
white blood cells (WBC) total count ([6]; 0.78, 1.56, 3.12 wt % IL): concentration dependent decrease
lymphocyte count ([6]; 0.78, 1.56, 3.12 wt % IL, compared to control): no change in lymphocyte count
hemolysis test ([6]; 0.78-25 wt % IL): significant increase in hemolysis
hemolysis on stained blood smears ([6]; 3.12 wt % IL): complete hemolysis
fat depletion from adipocytes [7]: fat was depleted
ALP [8]: *211 ± 29 U/L
ALT [8]: 57 ± 13 U/L
BUN [8]: **25 ± 2.4 mg/dL
CRE [8]: 0.3 ± 0.04 mg/dL
CRP [8]: 459 ± 38 ng/mL
GLU [8]: 268 ± 75 mg/dL
Total Protein [8]: 5.2 ± 0.3 g/dL
liver and renal function from serum samples [8]: normal liver and renal function
tumor tissue histology [9]: marked tissue destruction
